Experimental data from USRE39591E1, “6-O-substituted ketolides having antibacterial activity” (Abbott Laboratories, priority 1996, dated 2007).
Values after ≈ are worked out from the molar mass of the structure shown.

Test system: up to 32 different microorganisms
Test: in vitro antibacterial activity (MIC), agar dilution on Brain Heart Infusion (BHI) agar with Steers replicator
Assay type: cell-based
Settings: unit assumed
Protocol: Representative compounds of the present invention were assayed in vitro for antibacterial activity as follows: Twelve petri dishes containing successive aqueous dilutions of the test compound mixed with 10 mL of sterilized Brain Heart Infusion (BHI) agar (Difco 0148-01-5) were prepared. Each plate was inoculated with 1:100 (or 1:10 for slow-growing strains, such as Micrococcus and Streptococcus) dilutions of up to 32 different microorganisms, using a Steers replicator block. The inoculated plates were incubated at 35°-37° C. for 20 to 24 hours. In addition, a control plate, using BHI agar containing no test compound, was prepared and incubated at the beginning and end of each test.
An additional plate containing a compound having known susceptibility patterns for the organisms being tested and belonging to the same antibiotic class as the test compound was also prepared and incubated as a further control, as well as to provide test-to-test comparability. Erythromycin A was used for this purpose.
After incubation, each plate was visually inspected. The minimum inhibitory concentration (MIC) was defined as the lowest concentration of drug yielding no growth, a slight haze, or sparsely isolated colonies on the inoculum spot as compared to the growth control.

## CC[C@H]1OC(=O)[C@H](C)C(=O)[C@H](C)[C@@H](O[C@@H]2O[C@H](C)C[C@H](N(C)C)[C@H]2O)[C@@](C)(OCC=Cc2ccc(Cl)cc2)C[C@@H](C)C(=O)[C@H](C)[C@H]2OC(=O)O[C@@]21C [Example 74, Compound of Formula (IX): L is CO, T is O, R is —CH2CH═CH-(4-chlorophenyl)]
Candida albicans CCH 442 (code TT)
  MIC: > 100 µg/mL
Enterococcus faecism ATCC 8043 (code II)
  MIC: 0.1 µg/mL
Escherichia coli DC-2 (code SS)
  MIC: > 100 µg/mL
Escherichia coli JUHL (code QQ)
  MIC: > 100 µg/mL
Escherichia coli SS (code RR)
  MIC: 3.3 µg/mL
Haemophilis influenzae DILL AMP R (code WW)
  MIC: 4 µg/mL
Micrococcus luteus ATCC 4698 (code PP)
  MIC: 0.2 µg/mL
Micrococcus luteus ATCC 9341 (code OO)
  MIC: 0.05 µg/mL
Mycobacterium smegmatis ATCC 114 (code UU)
  MIC: 0.39 µg/mL
Nocardia Asteroides ATCC9970 (code VV)
  MIC: 0.39 µg/mL
Staphylococcus aureus 1775 (code GG)
  MIC: > 100 µg/mL
Staphylococcus aureus A5177 (code BB)
  MIC: 0.2 µg/mL
Staphylococcus aureus A-5278 (code CC)
  MIC: > 100 µg/mL
Staphylococcus aureus ATCC 6538P (code AA)
  MIC: 0.2 µg/mL
Staphylococcus aureus CMX 553 (code FF)
  MIC: 0.2 µg/mL
Staphylococcus aureus CMX 642A (code DD)
  MIC: 0.2 µg/mL
Staphylococcus aureus NCTC10649M (code EE)
  MIC: 0.2 µg/mL
Staphylococcus epidermidis 3519 (code HH)
  MIC: 0.2 µg/mL
Streptococcus Pneumonia 5649 (code ZZA)
  MIC: 0.5 µg/mL
Streptococcus Pneumonia 5979 (code ZZ)
  MIC: 32 µg/mL
Streptococcus Pneumonia ATCC6303 (code XX)
  MIC: 0.125 µg/mL
Streptococcus Pneumonia GYR 1171 (code YY)
  MIC: 0.125 µg/mL
Streptococcus agalactiae CMX 508 (code KK)
  MIC: 0.05 µg/mL
Streptococcus bovis A-5169 (code JJ)
  MIC: 0.05 µg/mL
Streptococcus pyogenes 930 (code MM)
  MIC: 50 µg/mL
Streptococcus pyogenes EES61 (code LL)
  MIC: 0.05 µg/mL
Streptococcus pyogenes PIU 2548 (code NN)
  MIC: 0.39 µg/mL

## CC[C@H]1OC(=O)[C@H](C)C(=O)[C@H](C)[C@@H](O[C@@H]2O[C@H](C)C[C@H](N(C)C)[C@H]2O)[C@@](C)(OCC=Cc2cnc3ccc(C(=O)O)cc3c2)C[C@@H](C)C(=O)[C@H](C)[C@H]2NC(=O)O[C@@]21C [Example 214]
Organism code AA
  MIC: 6.2 µg/mL (≈ 7.65 µM)
Organism code BB
  MIC: 251 µg/mL (≈ 310 µM)
Organism code CC
  MIC: > 100 µg/mL
Organism code DD
  MIC: 12.5 µg/mL (≈ 15.4 µM)
Organism code EE
  MIC: 12.5 µg/mL (≈ 15.4 µM)
Organism code FF
  MIC: 12.5 µg/mL (≈ 15.4 µM)
Organism code GG
  MIC: > 100 µg/mL
Organism code HH
  MIC: 25 µg/mL (≈ 30.9 µM)
Organism code II
  MIC: 25 µg/mL (≈ 30.9 µM)
Organism code JJ
  MIC: 6.2 µg/mL (≈ 7.65 µM)
Organism code KK
  MIC: 3.1 µg/mL (≈ 3.83 µM)
Organism code LL
  MIC: 1.56 µg/mL (≈ 1.93 µM)
Organism code MM
  MIC: 12.5 µg/mL (≈ 15.4 µM)
Organism code NN
  MIC: 25 µg/mL (≈ 30.9 µM)
Organism code OO
  MIC: 12.5 µg/mL (≈ 15.4 µM)
Organism code PP
  MIC: 12.5 µg/mL (≈ 15.4 µM)
Organism code QQ
  MIC: > 100 µg/mL
Organism code RR
  MIC: 3.1 µg/mL (≈ 3.83 µM)
Organism code SS
  MIC: > 100 µg/mL
Organism code TT
  MIC: > 100 µg/mL
Organism code UU
  MIC: 100 µg/mL (≈ 123 µM)
Organism code VV
  MIC: 50 µg/mL (≈ 61.7 µM)
Organism code WW
  MIC: 64 µg/mL (≈ 79 µM)
Organism code XX
  MIC: 1 µg/mL (≈ 1.23 µM)
Organism code YY
  MIC: 1 µg/mL (≈ 1.23 µM)
Organism code ZZ
  MIC: > 128 µg/mL
Organism code ZZA
  MIC: 32 µg/mL (≈ 39.5 µM)

## CCC1OC(=O)C(C)C(=O)C(C)C(OC2OC(C)CC(N(C)C)C2O)C(C)(OCC2CC2c2cnc3ccccc3c2)CC(C)C(=O)C(C)C2NC(=O)OC12C (stereo not drawn) [Example 243, Compound of Formula (IX): L is CO, T is NH, R is —CH2(2-(3-quinolyl)cyclopropyl)]
Organism code AA
  MIC: 0.05 µg/mL
Organism code BB
  MIC: 0.05 µg/mL
Organism code CC
  MIC: > 100 µg/mL
Organism code DD
  MIC: 0.05 µg/mL
Organism code EE
  MIC: 0.1 µg/mL
Organism code FF
  MIC: 0.05 µg/mL
Organism code GG
  MIC: > 100 µg/mL
Organism code HH
  MIC: 0.1 µg/mL
Organism code II
  MIC: 0.02 µg/mL
Organism code JJ
  MIC: 0.02 µg/mL
Organism code KK
  MIC: 0.02 µg/mL
Organism code LL
  MIC: 0.02 µg/mL
Organism code MM
  MIC: 6.2 µg/mL
Organism code NN
  MIC: 0.1 µg/mL
Organism code OO
  MIC: 0.02 µg/mL
Organism code PP
  MIC: 0.02 µg/mL
Organism code QQ
  MIC: 50 µg/mL
Organism code RR
  MIC: 0.2 µg/mL
Organism code SS
  MIC: 50 µg/mL
Organism code TT
  MIC: > 100 µg/mL
Organism code UU
  MIC: 0.39 µg/mL
Organism code VV
  MIC: 0.05 µg/mL
Organism code WW
  MIC: 4 µg/mL
Organism code XX
  MIC: 0.03 µg/mL
Organism code YY
  MIC: 0.03 µg/mL
Organism code ZZ
  MIC: 128 µg/mL
Organism code ZZA
  MIC: 0.25 µg/mL

## CCC1OC(=O)C(C)C(=O)C(C)C(OC2OC(C)CC(N(C)C)C2O)C(C)(OCC=Cc2cnc3ccc(NC(C)=O)cc3c2)CC(C)C(=O)C(C)C2NC(=O)OC12C (stereo not drawn) [Example 203]
Organism code AA
  MIC: 0.2 µg/mL (≈ 0.243 µM)
Organism code BB
  MIC: 0.39 µg/mL (≈ 0.474 µM)
Organism code CC
  MIC: > 100 µg/mL
Organism code DD
  MIC: 0.2 µg/mL (≈ 0.243 µM)
Organism code EE
  MIC: 0.2 µg/mL (≈ 0.243 µM)
Organism code FF
  MIC: 0.39 µg/mL (≈ 0.474 µM)
Organism code GG
  MIC: > 100 µg/mL
Organism code HH
  MIC: 0.2 µg/mL (≈ 0.243 µM)
Organism code II
  MIC: 0.2 µg/mL (≈ 0.243 µM)
Organism code JJ
  MIC: ≤ 0.005 µg/mL
Organism code KK
  MIC: 0.01 µg/mL (≈ 0.0122 µM)
Organism code LL
  MIC: 0.01 µg/mL (≈ 0.0122 µM)
Organism code MM
  MIC: 1.56 µg/mL (≈ 1.9 µM)
Organism code NN
  MIC: 0.39 µg/mL (≈ 0.474 µM)
Organism code OO
  MIC: 0.02 µg/mL (≈ 0.0243 µM)
Organism code PP
  MIC: 0.39 µg/mL (≈ 0.474 µM)
Organism code QQ
  MIC: 100 µg/mL (≈ 122 µM)
Organism code RR
  MIC: 0.39 µg/mL (≈ 0.474 µM)
Organism code SS
  MIC: 100 µg/mL (≈ 122 µM)
Organism code TT
  MIC: > 100 µg/mL
Organism code UU
  MIC: 6.2 µg/mL (≈ 7.53 µM)
Organism code VV
  MIC: 0.39 µg/mL (≈ 0.474 µM)
Organism code WW
  MIC: 4 µg/mL (≈ 4.86 µM)
Organism code XX
  MIC: 0.03 µg/mL (≈ 0.0365 µM)
Organism code YY
  MIC: 0.03 µg/mL (≈ 0.0365 µM)
Organism code ZZ
  MIC: 16 µg/mL (≈ 19.4 µM)
Organism code ZZA
  MIC: 2 µg/mL (≈ 2.43 µM)
